# Data reported in the supplement of paper PMC11061612.
# Legend:
# [1] = test system: L-540 (Hodgkin's Lymphoma); assay: Bliss excess, mean over the matrix (fraction); higher = more synergy
# Outline: (§1)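 After 24 hours at 37°C and 5% CO2 in 1536-well plates, cells in DMEM/F12 or RPMI plus 10% FBS received two-drug dose matrices for 72 hours. Viability came from CellTiter-Glo 2.0 luminescence and was scaled as inhibition, anchored at 0 by vehicle wells and at 1 by blank wells. Combination Emax is taken as the second-highest inhibition in the matrix, and Bliss excess as the observed combination effect less EA + EB − EA·EB, with EA and EB the single-agent effects.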
# [2] = test system: BFTC-905 (Bladder Carcinoma); assay: as above
# Outline: as §1
# [3] = test system: NCI-H1792 (Lung Adenocarcinoma); assay: as above
# Outline: as §1
# [4] = test system: DND-41 (T-Lymphoblastic Leukemia); assay: as above
# Outline: as §1
# [5] = test system: SW837 (Colorectal Carcinoma); assay: as above
# Outline: as §1
# [6] = test system: SW1417 (Colorectal Carcinoma); assay: as above
# Outline: as §1
# [7] = test system: WIL2-NS (Non-Cancerous); assay: as above
# Outline: as §1
# [8] = test system: MKN28 (Gastric Carcinoma); assay: as above
# Outline: as §1
# [9] = test system: K-562 (Chronic Myelogenous Leukemia); assay: as above
# Outline: as §1
# [10] = test system: GR-ST (B-Lymphoblastic Leukemia); assay: as above
# Outline: as §1
# [11] = test system: NCI-H2818 (Mesothelioma); assay: as above
# Outline: as §1
# [12] = test system: ES8 (Ewing's Sarcoma); assay: as above
# Outline: as §1
# [13] = test system: BL-41 (Burkitt's Lymphoma); assay: as above
# Outline: as §1
# [14] = test system: CAMA-1 (Breast Carcinoma); assay: as above
# Outline: as §1
# [15] = test system: SR (Other Blood Carcinomas); assay: as above
# Outline: as §1
# [16] = test system: WM-115 (Melanoma); assay: as above
# Outline: as §1
# [17] = test system: ES1 (Ewing's Sarcoma); assay: as above
# Outline: as §1
# [18] = test system: L-540 (Hodgkin's Lymphoma); assay: combination Emax (second highest fraction inhibited in the dose matrix, 72 h); higher = more inhibition; extreme values may be limits of the assay
# Outline: as §1
# [19] = test system: BFTC-905 (Bladder Carcinoma); assay: as above
# Outline: as §1
# [20] = test system: NCI-H1792 (Lung Adenocarcinoma); assay: as above
# Outline: as §1
# [21] = test system: DND-41 (T-Lymphoblastic Leukemia); assay: as above
# Outline: as §1
# [22] = test system: SW837 (Colorectal Carcinoma); assay: as above
# Outline: as §1
# [23] = test system: SW1417 (Colorectal Carcinoma); assay: as above
# Outline: as §1
# [24] = test system: WIL2-NS (Non-Cancerous); assay: as above
# Outline: as §1
# [25] = test system: MKN28 (Gastric Carcinoma); assay: as above
# Outline: as §1
# [26] = test system: K-562 (Chronic Myelogenous Leukemia); assay: as above
# Outline: as §1
# [27] = test system: GR-ST (B-Lymphoblastic Leukemia); assay: as above
# Outline: as §1
# [28] = test system: NCI-H2818 (Mesothelioma); assay: as above
# Outline: as §1
# [29] = test system: ES8 (Ewing's Sarcoma); assay: as above
# Outline: as §1
# [30] = test system: BL-41 (Burkitt's Lymphoma); assay: as above
# Outline: as §1
# [31] = test system: CAMA-1 (Breast Carcinoma); assay: as above
# Outline: as §1
# [32] = test system: SR (Other Blood Carcinomas); assay: as above
# Outline: as §1
# [33] = test system: WM-115 (Melanoma); assay: as above
# Outline: as §1
# [34] = test system: ES1 (Ewing's Sarcoma); assay: as above
# Outline: as §1
# 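Wherever Bliss excess, mean over the matrix is given: after 72 h of two-drug dosing.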
SMILES,Bliss excess [1],Bliss excess [2],Bliss excess [3],Bliss excess [4],Bliss excess [5],Bliss excess [6],Bliss excess [7],Bliss excess [8],Bliss excess [9],Bliss excess [10],Bliss excess [11],Bliss excess [12],Bliss excess [13],Bliss excess [14],Bliss excess [15],Bliss excess [16],Bliss excess [17],combination Emax [18],combination Emax [19],combination Emax [20],combination Emax [21],combination Emax [22],combination Emax [23],combination Emax [24],combination Emax [25],combination Emax [26],combination Emax [27],combination Emax [28],combination Emax [29],combination Emax [30],combination Emax [31],combination Emax [32],combination Emax [33],combination Emax [34]
"CS(=O)(=O)CCNCc1ccc(-c2ccc3ncnc(Nc4ccc(OCc5cccc(F)c5)c(Cl)c4)c3c2)o1 [Lapatinib] + Cn1cnc2c(F)c(Nc3ccc(Br)cc3Cl)c(C(=O)NOCCO)cc21 [Selumetinib] (first compound max 10 µM, 7x7, partner max 10 µM)",-0.0147,0.0619,0.0012,0.0178,0.0194,0.0847,0.0098,0.0057,-0.0324,-0.03,-0.0295,0.036,-0.0346,-0.0009,0.0398,0.0205,0.0071,0.511,0.804,0.527,0.871,0.732,0.698,0.321,0.545,0.564,0.969,0.28,0.555,0.907,0.187,0.707,0.531,0.452
"O=C(c1cc(Cc2n[nH]c(=O)c3ccccc23)ccc1F)N1CCN(C(=O)C2CC2)CC1 [Olaparib] + CC1(C)CCC(CN2CCN(c3ccc(C(=O)NS(=O)(=O)c4ccc(NCC5CCOCC5)c([N+](=O)[O-])c4)c(Oc4cnc5[nH]ccc5c4)c3)CC2)=C(c2ccc(Cl)cc2)C1 [Venetoclax] (first compound max 10 µM, 7x7, partner max 1 µM)",0.0188,-0.0334,-0.0302,0.0243,-0.0548,-0.0223,0.0261,-0.0514,-0.0133,-0.0349,-0.0238,-0.0224,0.0183,-0.0106,0.0961,-0.052,0.0271,0.558,0.193,0.109,0.29,0.112,0.124,0.46,0.105,0.172,0.526,0.158,0.964,0.318,0.211,0.567,0.241,0.841
"O=C(c1cc(Cc2n[nH]c(=O)c3ccccc23)ccc1F)N1CCN(C(=O)C2CC2)CC1 [Olaparib] + CN(CC[C@H](CSC1=CC=CC=C1)NC2=C(C=C(C=C2)S(=O)(=O)NC(=O)C3=CC=C(C=C3)N4CCC(CC4)[C@H](C5=CC=CC=C5C6=CC=C(C=C6)Cl)O)S(=O)(=O)C(F)(F)F)CCO [AZD4320] (first compound max 10 µM, 7x7, partner max 1 µM)",-0.0017,-0.0089,-0.0399,-0.0067,-0.053,-0.0183,0.0107,-0.0269,-0.0155,0.0012,-0.0504,0.0463,0.0193,-0.0317,0.146,-0.0631,0.0333,0.618,0.346,0.154,1,0.197,0.651,0.509,0.147,0.253,0.462,0.186,0.982,0.417,0.278,0.709,0.37,0.918
"O=C(c1cc(Cc2n[nH]c(=O)c3ccccc23)ccc1F)N1CCN(C(=O)C2CC2)CC1 [Olaparib] + COc1nnc2ccc(N3CCC(c4ccc(OCCN5CCN(C)C(=O)[C@H]5C)cc4)CC3)nn12 [AZD5153] (first compound max 10 µM, 7x7, partner max 1 µM)",-0.0841,-0.0614,-0.0554,0.0275,-0.0656,-0.0096,-0.0128,-0.056,-0.0063,-0.0519,-0.0205,0.0168,-0.0634,-0.0417,0.0315,-0.135,-0.0392,0.619,0.6,0.527,0.69,0.484,0.448,0.818,0.362,0.412,0.776,0.325,0.966,0.648,0.484,0.626,0.295,0.882
"O=C(c1cc(Cc2n[nH]c(=O)c3ccccc23)ccc1F)N1CCN(C(=O)C2CC2)CC1 [Olaparib] + Cc1c2c(nn1C)CSCc1cc(n(C)n1)CSc1cc(c3ccccc3c1)OCCCc1c(C(=O)O)n(C)c3c-2c(Cl)ccc13 [AZD5991] (first compound max 10 µM, 7x7, partner max 1 µM)",0.0143,-0.0279,-0.041,-0.0059,-0.0524,-0.0315,-0.0181,-0.0498,-0.0125,-0.0352,-0.0446,-0.0085,0.0012,0.0094,0.0384,-0.0678,0.0139,1,0.178,0.201,0.174,0.136,0.0852,0.299,0.0875,0.0695,0.515,0.169,0.958,1,0.706,0.943,0.146,0.98
"N#Cc1cnc(Nc2cc(NC[C@H]3CNCCO3)c(C(F)(F)F)cn2)cn1 [SRA737] + C=CCn1c(=O)c2cnc(Nc3ccc(N4CCN(C)CC4)cc3)nc2n1-c1cccc(C(C)(C)O)n1 [AZD1775] (first compound max 10 µM, partner max 1 µM)",0.0404,0.0526,0.0434,0.104,0.0157,0.0127,0.102,0.0204,0.0463,0.0215,-0.0129,0.144,0.0924,0.0672,0.029,-0.0524,0.118,0.921,0.777,0.864,0.949,0.725,0.537,0.968,0.504,0.967,0.864,0.299,0.884,1,0.442,1,0.356,0.993
"N#Cc1cnc(Nc2cc(NC[C@H]3CNCCO3)c(C(F)(F)F)cn2)cn1 [SRA737] + Nc1ccn([C@@H]2O[C@H](CO)[C@@H](O)C2(F)F)c(=O)n1 [Gemcitabine] (first compound max 10 µM, 7x7, partner max 0.3 µM)",0.0222,0.0034,0.0436,-0.0197,0.121,0.0613,-0.0384,0.032,0.0559,0.0024,0.0002,0.0504,-0.0522,0.0294,0.0325,-0.0214,0.0419,0.962,0.868,0.922,0.908,0.75,0.685,0.983,0.575,0.933,0.871,0.473,1,1,0.455,1,0.501,1
"N#Cc1cnc(Nc2cc(NC[C@H]3CNCCO3)c(C(F)(F)F)cn2)cn1 [SRA737] + O=c1[nH]cc(F)c(=O)[nH]1 [5-Fluorouracil] (first compound max 10 µM, 7x7, partner max 20 µM)",-0.0581,0.0197,0.0523,0.0434,0.0162,0.0018,0.0182,0.0222,-0.0202,-0.0636,-0.0232,0.0404,0.0042,0.0209,-0.0128,-0.0753,0.0525,0.936,0.278,0.84,0.946,0.497,0.238,0.957,0.381,0.893,0.817,0.239,0.611,1,0.314,0.959,0.255,0.982
